The numbers were not newly measured in PMC12689647, “Evaluation of bromadiolone combined with ciprofloxacin, vitamin D, aspirin, and cinnamon as an apoptosis-mediated rodenticide strategy” (Scientific Reports, 2025), which cites them from elsewhere.

One data set deals with CYP1A. To be noted: co-administration, many animal species; cited from earlier work.
For another data set, the system named is Albino rats. To be noted: repeated doses (1 g/kg); cited from earlier work.
The subject of a further data set is G361 HMM cells. The settings on record: cited from earlier work.

Regarding `O=C(O)c1cn(C2CC2)c2cc(N3CCNCC3)c(F)cc2c1=O` [Ciprofloxacin], the “effect on CYP1A activity in hepatic microsomes” value in the data set with CYP1A is on record as “inhibits CYP1A activity”.

Consider `CC(=O)Oc1ccccc1C(=O)O` [acetylsalicylic acid, Acetylsalicylic acid], for which the “toxic effects of repeated doses” value in the data set with Albino rats is “varying degrees of gastroenteritis, hepatitis, nephritis, pulmonary edema”.

`O=c1ccc2cc(O)c(O)cc2o1` [esculetin]: the “effect on apoptotic signaling molecules” value in the data set with G361 HMM cells was “activated apoptotic signaling molecules such as caspase-3 and PARP”.
